Assay results: patent publication US12630563B2, “Macrocyclic RIP2-kinase inhibitors” (Oncodesign S.A., priority 2020, dated 2026)

Legend:
[1] = biological target: T1, recombinant hRIPK2 protein (kinase domain aa 1-299-His-tagged) (Homo sapiens, UniProt O43353); assay: RIPK2 AlphaLISA assay (displacement of bead-bound CZC-8004 from hRIPK2); assay type: binding; settings: recombinant hRIPK2 kinase domain 10 nM, 2 h at 23° C.
T1 construct: kinase domain aa 1-299-His-tagged; purchased Life Technologies PR7829A
T1 sequence (O43353 1-299): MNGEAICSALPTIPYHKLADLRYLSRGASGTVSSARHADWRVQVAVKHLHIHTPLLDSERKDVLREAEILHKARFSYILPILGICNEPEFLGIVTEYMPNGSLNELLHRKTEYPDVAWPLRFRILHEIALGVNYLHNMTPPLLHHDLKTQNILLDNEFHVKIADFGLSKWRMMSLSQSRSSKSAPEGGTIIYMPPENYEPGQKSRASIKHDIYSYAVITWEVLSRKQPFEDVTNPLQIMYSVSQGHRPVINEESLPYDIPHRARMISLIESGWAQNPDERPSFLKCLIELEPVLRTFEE
Summary of the method: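 His-tagged kinase domain (10 nM, as diluted) was mixed with compound (0.8% DMSO), acceptor beads bearing the probe CZC-8004 and Ni2+ donor beads. After 2 h at 23 °C, AlphaLISA signal was read. Loss of signal reflects displacement of the probe from RIPK2.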

[2] = Human Clint, microsomal metabolic stability (Assay B); assay type: in vitro ADME; settings: pooled liver microsomes 0.5 mg/mL, 0.5 μM compound, NADPH
Method: Human Clint protocol: Pooled liver microsomes (Sekisui Xenotech) were diluted at 0.5 mg/mL in 50 mM phosphate buffer, pH 7.4 then pre-incubated with 0.5 μM […] for 7 min at 37° C. The reactions were initiated by adding prewarmed cofactor (0.44 mM NADPH). Aliquots of samples were taken at 0, 5, 10, 20 and 45 min and the reactions stopped by addition of cold acetonitrile containing an internal standard. Samples were centrifuged at 3000 g for 10 min at 4° C. and then supernatants were analyzed by LC/MS/MS for the amount of parent compound remaining.

hERG potassium channel = biological target: T2, hERG potassium channel (Homo sapiens, UniProt Q12809); assay: hERG q-patch assay (Assay C, Sophion Qube automated electrophysiology); assay type: cell-based; settings: read-out: Assay C: hERG q-patch inhibition IC50
T2 construct: host or cells: HEK (hERG-HEK stably transfected cell line)
T2 sequence (Q12809 whole entry): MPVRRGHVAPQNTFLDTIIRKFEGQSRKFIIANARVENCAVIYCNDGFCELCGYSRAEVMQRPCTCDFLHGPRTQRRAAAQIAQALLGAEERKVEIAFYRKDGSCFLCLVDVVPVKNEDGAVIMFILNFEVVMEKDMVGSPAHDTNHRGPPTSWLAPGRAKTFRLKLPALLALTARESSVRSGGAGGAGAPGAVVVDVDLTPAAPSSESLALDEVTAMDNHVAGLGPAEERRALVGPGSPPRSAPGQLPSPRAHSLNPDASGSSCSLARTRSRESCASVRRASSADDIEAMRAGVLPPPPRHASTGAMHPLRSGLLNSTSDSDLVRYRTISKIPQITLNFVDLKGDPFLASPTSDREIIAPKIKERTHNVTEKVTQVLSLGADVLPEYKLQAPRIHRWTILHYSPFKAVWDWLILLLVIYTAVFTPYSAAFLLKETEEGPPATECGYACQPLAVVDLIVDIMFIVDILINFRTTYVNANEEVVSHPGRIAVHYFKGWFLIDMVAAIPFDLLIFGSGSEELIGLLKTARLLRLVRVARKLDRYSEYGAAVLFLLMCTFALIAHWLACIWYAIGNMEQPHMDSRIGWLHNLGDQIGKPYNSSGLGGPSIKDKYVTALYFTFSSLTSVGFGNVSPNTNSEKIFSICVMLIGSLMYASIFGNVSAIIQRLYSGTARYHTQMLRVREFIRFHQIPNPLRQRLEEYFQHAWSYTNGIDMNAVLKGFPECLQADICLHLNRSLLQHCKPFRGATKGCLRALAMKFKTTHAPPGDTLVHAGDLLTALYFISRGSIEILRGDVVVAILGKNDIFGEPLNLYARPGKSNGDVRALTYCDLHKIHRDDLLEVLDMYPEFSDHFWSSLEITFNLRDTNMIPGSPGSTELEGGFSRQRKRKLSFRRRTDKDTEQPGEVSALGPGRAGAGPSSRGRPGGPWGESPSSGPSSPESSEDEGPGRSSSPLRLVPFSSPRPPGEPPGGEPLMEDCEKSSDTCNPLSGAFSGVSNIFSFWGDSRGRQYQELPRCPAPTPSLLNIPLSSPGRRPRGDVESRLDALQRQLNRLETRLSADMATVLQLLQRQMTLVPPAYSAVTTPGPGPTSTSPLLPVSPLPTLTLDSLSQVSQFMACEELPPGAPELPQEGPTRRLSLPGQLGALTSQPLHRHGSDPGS
Method: hERG q-patch assay protocol: The potential for test compound to inhibit the hERG potassium channel was determined using the Charles River ChanTest® hERG-HEK stably transfected cell line on the Sophion Qube automated electrophysiology platform. The assay was performed at room temperature and recordings of the hERG tail current from a population of cells were made using multi-hole QChips.

[3] = Human protein binding free fraction (Assay A, RED plate equilibrium dialysis); assay type: in vitro ADME; settings: plasma, read-out: Assay A: Human protein binding free fraction (F %)
Method: Human protein binding protocol: Compound was added to plasma or brain homogenate and incubated at 2 μM at 37° C. in the RED plate (Thermo n° 96009, cut-off 8000 Da) against PBS buffer. After 4 h, aliquots of plasma and buffer side were transferred to a well containing acetonitrile with an internal standard. After protein precipitation, samples were centrifuged and supernatant was injected in LC/MS/MS. Standards were prepared in the same matrix and treated as samples.
A fraction unbound (fuplasma) was determined for each plasma sample as follows: […]

SMILES	IC50 [1] [nM]	fraction unbound at 4 h, 2 μM [3]	Assay B: Human Clint (hCl) [2]	IC50 (hERG potassium channel) [nM]
COc1cn2ncc3c2nc1OC[C@@H]1C[C@@H](OC)C(=O)N1CCNc1cc(F)cc-3c1 [Example 1, (12R,14S)-4-fluoro-12,18-dimethoxy-16-oxa-7,10,20,21,24-pentaazapentacyclo[15.5.2.1^2,6.0^1°,^14.0^2°,^23]pentacosa-1(23),2(25),3,5,17(24),18,21-heptaen-11-one]	< 10	–	+++ (+++ indicates hCl equal or below 5 ug/min/mg prot)	> 10000
CO[C@@H]1C[C@H]2COc3ccn4ncc(c4n3)-c3cc(F)cc(c3)NCCN2C1=O [Example 3, (12R,14S)-4-fluoro-12-methoxy-16-oxa-7,10,20,21,24-pentaazapentacyclo[15.5.2.1^2,6.0^10,^14.0^20,^23] pentacosa-1(23),2(25),3,5,17(24),18,21-heptaen-11-one]	< 10	> 0.01	++ (++ indicates hCl between 6-18 ug/min/mg prot)	> 10000
CO[C@@H]1C[C@H]2COc3nc4c(cnn4cc3-c3cnn(C)c3)-c3cc(F)cc(c3)NCCN2C1=O [Example 67, (12R,14S)-4-fluoro-12-methoxy-18-(1-methyl-1H-pyrazol-4-yl)-16-oxa-7,10,20,21,24-pentaazapentacyclo[15.5.2.1^2,6.0^1°,^14.0^2°,^23]pentacosa-1(23),2(25),3,5,17(24), 18,21-heptaen-11-one]	< 10	–	+++ (+++ indicates hCl equal or below 5 ug/min/mg prot)	> 10000
O=C1[C@H](OCCO)C[C@H]2COc3ccn4ncc(c4n3)-c3cc(F)cc(c3)NCCN12 [Example 79, (12R,14S)-4-fluoro-12-(2-hydroxyethoxy)-16-oxa-7,10,20,21,24-pentaazapentacyclo[15.5.2.1^2,6.0^1°,^14.0^2°,^23]pentacosa-1(23),2(25),3,5,17(24),18,21-heptaen-11-one]	< 10	> 0.01	+++ (+++ indicates hCl equal or below 5 ug/min/mg prot)	1000 to 10000
COc1cc2cc(c1)-c1cnn3cc(OC)c(nc13)OC[C@@H]1C[C@@H](OC(C)C)C(=O)N1CCN2 [Example 147, (12R,14S)-4,18-dimethoxy-12-(propan-2-yloxy)-16-oxa-7,10,20,21,24-pentaazapentacyclo[15.5.2. 1^2,6.0^10,^14.0^20,^23]pentacosa-1(23),2,4,6(25),17(24),18, 21-heptaen-11-one]	< 10	–	–	–

Continued, in another order:

IC50 [1] [nM]	fraction unbound at 4 h, 2 μM [3]	SMILES	Assay B: Human Clint (hCl) [2]	IC50 (hERG potassium channel) [nM]
< 10	> 0.01	CO[C@@H]1C[C@H]2COc3ccn4ncc(c4n3)-c3cc(cc(C(C)=O)c3)NCCN2C1=O [Example 54, (12R,14S)-4-acetyl-12-methoxy-16-oxa-7,10,20,21,24-pentaazapentacyclo[15.5.2.1^2,6.0^1°,^14.0^2°,^23]pentacosa-1(23),2,4,6(25),17(24),18,21-heptaen-11-one]	++ (++ indicates hCl between 6-18 ug/min/mg prot)	> 10000
< 10	–	CO[C@@H]1C[C@H]2COc3ccn4ncc(c4n3)-c3cc(cc(C(=O)N(C)OC)c3)NCCN2C1=O [Example 55, (12R,14S)—N,12-dimethoxy-N-methyl-11-oxo-16-oxa-7,10,20,21,24-pentaazapentacyclo[15.5.2.1^2,6.0^1°,^14.0^2°,^23]pentacosa-1(23),2,4,6(25),17(24),18,21-heptaene-4-carboxamide]	+++ (+++ indicates hCl equal or below 5 ug/min/mg prot)	> 10000
